Source: patent publication US7151105B2, “Inhibitors of Hepatitis C virus RNA-dependent RNA polymerase, and compositions and treatments using the same” (Agouron Pharmaceuticals, Inc., priority 2004, dated 2006)

target: T1, Recombinant HCV polymerase (Hepatitis C virus genotype 1b, UniProt P26663); experiment: biochemical; conditions: inhibition of polymerase-directed transcription; 30 min at 30° C; 30 nM enzyme; cpm data in triplicate
T1 construct: Recombinant HCV polymerase was tested for its ability to perform primer/template-directed transcription
T1 sequence (P26663 2420-3010): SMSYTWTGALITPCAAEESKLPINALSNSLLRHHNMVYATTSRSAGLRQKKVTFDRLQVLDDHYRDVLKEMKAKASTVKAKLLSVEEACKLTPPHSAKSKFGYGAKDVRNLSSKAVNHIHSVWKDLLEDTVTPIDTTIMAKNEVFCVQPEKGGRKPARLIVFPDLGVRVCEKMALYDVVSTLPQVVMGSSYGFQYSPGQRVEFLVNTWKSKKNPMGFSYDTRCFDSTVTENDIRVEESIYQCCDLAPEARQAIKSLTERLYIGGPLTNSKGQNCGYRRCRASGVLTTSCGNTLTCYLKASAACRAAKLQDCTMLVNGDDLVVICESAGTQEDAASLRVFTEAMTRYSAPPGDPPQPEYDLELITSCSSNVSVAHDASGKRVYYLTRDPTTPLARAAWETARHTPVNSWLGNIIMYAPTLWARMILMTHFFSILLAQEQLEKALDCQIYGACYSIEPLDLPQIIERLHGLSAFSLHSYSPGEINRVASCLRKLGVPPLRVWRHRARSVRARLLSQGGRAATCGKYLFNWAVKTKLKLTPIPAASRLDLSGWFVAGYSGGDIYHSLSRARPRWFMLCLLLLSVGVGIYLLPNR
Method in brief: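 Primer/template-directed RNA synthesis by 2.5 pmol HCV polymerase on poly(rC)300/biotin-dG12 with 1 μM GTP plus α-32P-GTP, in pH 7.2 Tris buffer with 10 mM MgCl2, for 30 min at 30 °C. Products were filter-captured and counted, with 1% DMSO final. IC50 was fitted from triplicate cpm; percent inhibition was reported where IC50 was impractical.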

Row | Compound | IC50 [nM]
1 | CCc1cc(CCC2(C3CCCC3)CC(O)=C(Cc3nc4nc(C)cc(C)n4n3)C(=O)O2)ccc1OCCN (stereo not shown) [A(71)] | 9
2 | CCc1cc(CCC2(C3CCCC3)CC(O)=C(Cc3nc4nc(C)cc(C)n4n3)C(=O)O2)ccc1OCCNC (stereo not shown) [A(72), 6-Cyclopentyl-3-[(5,7-dimethyl[1,2,4]triazolo[1,5-a]pyrimidin-2-yl)methyl]-6-(2-{3-ethyl-4-[2-(methylamino)ethoxy]phenyl}ethyl)-4-hydroxy-5,6-dihydro-2H-pyran-2-one] | 8
3 | Cc1cc(C)n2nc(CC3=C(O)CC(CCc4cc(C)c(O)c(CC(F)(F)F)c4)(C4CCCC4)OC3=O)nc2n1 (stereo not shown) [A(76), 6-Cyclopentyl-3-[(5,7-dimethyl[1,2,4]triazolo[1,5-a]pyrimidin-2-yl)methyl]-4-hydroxy-6-{2-[4-hydroxy-3-methyl-5-(2,2,2-trifluoroethyl)phenyl]ethyl}-5,6-dihydro-2H-pyran-2-one] | 5
4 | CCCOc1cc(O)c(CC(F)(F)F)cc1CCC1(C2CCCC2)CC(O)=C(Cc2nc3nc(C)cc(C)n3n2)C(=O)O1 (stereo not shown) [A(77), 6-Cyclopentyl-3-[(5,7-dimethyl[1,2,4]triazolo[1,5-a]pyrimidin-2-yl)methyl]-4-hydroxy-6-{2-[4-hydroxy-2-propoxy-5-(2,2,2-trifluoroethyl)phenyl]ethyl}-5,6-dihydro-2H-pyran-2-one] | 5
5 | Cc1cnc2nc(CC3=C(O)CC(CCc4ccc(C(C)(C)C#N)c(C)c4)(C4CCCC4)OC3=O)nn2c1 (stereo not shown) [A(78), 2-[4-(2-{2-Cyclopentyl-4-hydroxy-5-[(6-methyl[1,2,4]triazolo[1,5-a]pyrimidin-2-yl)methyl]-6-oxo-3,6-dihydro-2H-pyran-2-yl}ethyl)-2-methylphenyl]-2-methylpropanenitrile] | 12
6 | Cc1cnc2nc(CC3=C(O)CC(CCc4cc(F)c(C(C)(C)C#N)cc4O)(C4CCCC4)OC3=O)nn2c1 (stereo not shown) [A(79), 2-[4-(2-{2-Cyclopentyl-4-hydroxy-5-[(6-methyl[1,2,4]triazolo[1,5-a]pyrimidin-2-yl)methyl]-6-oxo-3,6-dihydro-2H-pyran-2-yl}ethyl)-2-fluoro-5-hydroxyphenyl]-2-methylpropanenitrile] | 12
7 | COc1cc(CO)c(F)cc1CCC1(C2CCCC2)CC(O)=C(Cc2nc3nc(C)cc(C)n3n2)C(=O)O1 (stereo not shown) [A(80), 6-Cyclopentyl-3-[(5,7-dimethyl[1,2,4]triazolo[1,5-a]pyrimidin-2-yl)methyl]-6-{2-[5-fluoro-4-(hydroxymethyl)-2-methoxyphenyl]ethyl}-4-hydroxy-5,6-dihydro-2H-pyran-2-one] | 22
8 | CCS(=O)(=O)N[C@H](C)c1ccc(CCC2(C3CCCC3)CC(O)=C(Cc3nc4nc(C)cc(C)n4n3)C(=O)O2)cc1 (stereo partly drawn) [A(81), N-{(1R)-1-[4-(2-{2-cyclopentyl-5-[(5,7-dimethyl[1,2,4]triazolo[1.5-a]pyrimidin-2-yl)methyl]-4-hydroxy-6-oxo-3,6-dihydro-2H-pyran-2-yl}ethyl)phenyl]ethyl}ethanesulfonamide] | 120
9 | Cc1cc(C)n2nc(CC3=C(O)CC(CCc4ccc([C@@H](C)NS(=O)(=O)CC(F)(F)F)cc4)(C4CCCC4)OC3=O)nc2n1 (stereo partly drawn) [A(82), N-{(1R)-1-[4(2-{2-cyclopentyl-5-[(5,7-dimethyl[1,2,4]triazolo[1,5-a]pyrimidin-2-yl)methyl]4-hydroxy-oxo-3,6dihydro-2H-pyran-2-yl}ethyl)phenyl]ethyl}-2,2,2-trifluoroethanesulfonamide] | 65
10 | Cc1cc(C)n2nc(CC3=C(O)CC(CCc4ccc([C@@H](C)NS(C)(=O)=O)cc4)(C4CCCC4)OC3=O)nc2n1 (stereo partly shown) [A(83)] | 38
11 | Cc1nc(CC2=C(O)CC(CCc3ccc(C(C)(C)C#N)c(F)c3)(C3CCCC3)OC2=O)n(C)n1 (stereo not shown) [A(84), 2-[4-(2-{2-Cyclopentyl-5-[(1,3-dimethyl-1H-1,2,4-triazol-5-yl)methyl]-4-hydroxy-6-oxo-3,6-dihydro-2H-pyran-2-yl}ethyl)-2-fluorophenyl]-2-methylpropanenitrile] | 72
12 | CCn1cc(CC2=C(O)CC(CCc3ccc(C(C)(C)C#N)c(F)c3)(C3CCCC3)OC2=O)cn1 (stereo not shown) [A(85), 2-[4-(2-{2-Cyclopentyl-5-[(1-ethyl-1H-pyrazol-4-yl)methyl]-4-hydroxy-6-oxo-3,6-dihydro-2H-pyran-2-yl}ethyl)-2-fluorophenyl]-2-methylpropanenitrile] | 83
13 | Cn1cc(CC2=C(O)CC(CCc3ccc(C(C)(C)C#N)c(F)c3)(C3CCCC3)OC2=O)cn1 (stereo not shown) [A(86), 2-[4(2-{2-Cyclopentyl-hydroxy-5[(1-methyl-1H-pyrazol-4-yl)methyl]-6-oxo-3,6-dihydro-2H-pyran-2-yl}ethyl)-2-fluorophenyl]-2-methylpropanenitrile] | 86
14 | C[C@@H](NS(=O)(=O)CC(F)(F)F)c1ccc(CCC2(C3CCCC3)CC(=O)CC(=O)O2)cc1 (stereo partly drawn) [A(88), N-((1R)-1-{4-[2-(2-cyclopentyl-4,6-dioxotetrahydro-2H-pyran-2-yl)ethyl]phenyl}ethyl)-2,2,2-trifluoroethanesulfonamide] | 27000

Further lines, results first:

Row | IC50 [nM] | Compound
15 | 9 | Cc1nn(C)c(C)c1CC1=C(O)CC(CCc2ccc(C(C)(C)C#N)c(F)c2)(C2CCCC2)OC1=O (stereo not shown) [A(89)]
16 | 43000 | C[C@@H](NC(=O)OC(C)(C)C)c1ccc(CCC2(C3CCCC3)CC(=O)CC(=O)O2)cc1 (stereo partly shown) [A(90)]
17 | 160 | Cc1cc(C)n2nc(CC3=C(O)CC(CCc4ccc([C@@H](C)NC(=O)OC(C)(C)C)cc4)(C4CCCC4)OC3=O)nc2n1 (stereo partly drawn) [A(91), tert-Butyl(1R)-1-[4-(2-{2-cyclopentyl-5-[(5,7-dimethyl[1,2,4]triazolo[1,5-a]pyrimidin-2-yl)methyl]-4-hydroxy-6-oxo-3,6-dihydro-2H-pyran-2-yl}ethyl)phenyl]ethylcarbamate]
18 | 300 | Cc1cc(C)n2nc(CC3=C(O)CC(CCc4ccc([C@@H](C)N)cc4)(C4CCCC4)OC3=O)nc2n1 (stereo partly drawn) [A(92), 6-(2-{4-[(1R)-1-Aminoethyl]phenyl}ethyl)-6-cyclopentyl-3-[(5,7-dimethyl[1,2,4]triazolo[1,5-a]pyrimidin-2-yl)methyl]-hydroxy-5,6-dihydro-2H-pyran-2-one]
19 | 6 | Cc1cc(C)n2nc(CC3=C(O)CC(CCc4ccc(C5(C#N)CC5)cc4)(C4CCCC4)OC3=O)nc2n1 (stereo not shown) [A(93), 1-[4(2-{2-Cyclopentyl-5-[(5,7-dimethyl[1,2,4]triazolo[1,5-a]pyrimidin-2-yl)methyl]-4-hydroxy-6-oxo-3,6-dihydro-2H-pyran-2-yl}ethyl)phenyl]cyclopropanecarbonitrile]
20 | 27 | Cc1c(CC2=C(O)CC(CCc3ccc(C(C)(C)C#N)c(F)c3)(C3CCCC3)OC2=O)cnn1C (stereo not shown) [A(94), 2-[4-(2-{2-Cyclopentyl-5-[(1,5-dimethyl-1H-pyrazol-4-yl)methyl]-4-hydroxy-6-oxo-3,6dihydro-2H-pyran-2-yl}ethyl)-2-fluorophenyl]-2-methylpropanenitrile]
21 | 40 | CCn1cc(CC2=C(O)CC(CCc3ccc(C(C)(C)C#N)c(F)c3)(C3CCCC3)OC2=O)c(C)n1 (stereo not shown) [A(95), 2-[4-(2-{2-Cyclopentyl-5-[(1-ethyl-3-methyl-1H-pyrazol-4-yl)methyl]-4-hydroxy-6-oxo-3,6-dihydro-2H-pyran-2-yl}ethyl)-2-fluorophenyl]-2-methylpropanenitrile]

same assay, conditions: read-out: % inh @ 50 uM

Row | Compound | inhibition at 50 µM [%]
22 | CCc1cc(CCC2(C3CCCC3)CC(=O)CC(=O)O2)c(OC)cc1OCCN(C)C(=O)OC(C)(C)C (stereo not shown) [A(73), tert-Butyl 2-{4-[2-(2-cyclopentyl-4,6-dioxotetrahydro-2H-pyran-2-yl)ethyl]-2-ethyl-5-methoxyphenoxy}ethyl(methyl)carbamate] | 19
